Measurements taken from patent EP0269017B1, “Therapeutic combination of free-radical scavenger or metabolic inhibitor and biologically active protein” (CETUS ONCOLOGY CORPORATION, priority 1986, dated 1988).
Read-outs that look alike come from different tables or passages of the source.

How the values were obtained:
Meth-A tumor cells [1] = assay type: in vivo, Female Balb/c mice; conditions: uric acid 25 mg/kg alone, i.v. once daily for five days
Protocol: (§1) Female Balb/c mice were implanted subcutaneously with Meth-A tumor cells as described in Example 1.
An IL-2 mutein, designated des-ala₁-IL2-ser125 (with no alanine at position 1 of the mature IL-2 molecule and a serine at position 125 of the mature IL-2 molecule), was prepared by the method described in U.S. Patent No. 4,518,584, supra, isolated from refractile bodies in accordance with the procedure described in EP-A-0 206 828, published December 30, 1986, and formulated as described in U.S. Patent No. 4,604,377 in sodium dodecyl sulfate.
Table IX indicates the results obtained when the IL-2 mutein described herein alone, uric acid alone, and various combination injections of the IL-2 mutein and uric acid were administered intravenously to five mice per group (2-3 repeats) beginning seven days after tumor implantation and once daily for five days, with the uric acid being administered immediately prior to (about 10 minutes) the IL-2 administration when both were administered. Final measurements were made on day 14. The excipient control was injected with PBS. The uric acid doses were all 25 mg/kg of mice weight.

[2] = test system: methylcholanthrene-induced murine fibrosarcoma (Meth-A); assay type: in vivo, Female Balb/c mice; conditions: uric acid 25 mg/kg alone, i.v. every third day three times
Excerpt: Female Balb/c mice (Charles River Breeding Laboratories, Inc., Wilmington, MA) that were all 6-8 weeks old were employed in the in vivo tests. Animals were weight matched at 20 ± 3 g, randomized at five per cage, and ear-notched. All animals were held in quarantine observation for seven days after arrival, maintained in microisolator cages (Lab Products, Inc.), and fed standard laboratory diets and drinking water ad lib.
A mutein of human TNF-α having the first eight amino acids deleted from the N-terminus was prepared as described In U.S. Patent No. 4,677,064 Issued June 30, 1987 and Wang et al., Science (1985) 228:149-153. Briefly, TNF was induced from HL-60 cells and purified and sequenced. Then an intronless sequence encoding human TNF was prepared by producing enriched mRNA, constructing a cDNA library, selecting a probe and probing the library to recover the sequence. Then an ATG start codon was introduced immediately preceding the GTC sequence encoding N-terminal valine of the mature protein by site-directed mutagenesis. Clones were selected and strands ligated into expression vectors to obtain prokaryotic expression of the mutein. […]
The uric acid dose was slightly below the maximum concentration attainable without decreasing animal weight, determined in a preliminary toxicity study, and was given immediately prior to the TNF inoculation. […]

Meth-A tumor cells [3] = assay: TNF mutein and vitamin C in mice with Meth-A tumor (Example 2); assay type: in vivo, Female Balb/c mice; conditions: for % Control △BW / Cures (△TW=0, or no visible tumor after 21 days from start of treatment) / Deaths / % Control △TW: i.v. every third day for three injections; for % Control △BW / % Control △TW: day 14
Excerpt: as §1

Meth-A tumor cells [4] = assay: TNF mutein and aspirin in mice with Meth-A tumor (Example 4)
Protocol: Female Balb/c mice were treated by subcutaneous implantation of Meth-A tumor cells as described in Example 1. Five mice per group were employed. Treatment was initiated seven days after the implantation.
A protocol was employed wherein aspirin or the TNF mutein of Example 1 alone, or aspirin together with the TNF mutein, were administered intravenously. In the combination group, aspirin was administered daily for five days and each dose was followed 1-4 hours later by TNF. PBS was used as a control.
The headings are defined in the footnotes of Table I. TABLE V

Meth-A tumor cells [5] = assay: TNF mutein with NDGA, aspirin or both in mice with Meth-A tumor (Example 5); conditions: no TNF, aspirin 30 mg/kg i.v. and/or NDGA 15.6 mg/kg i.p. every third day 3 times; for △TW: day 14
Protocol: Female Balb/c mice were treated by subcutaneous implantation of Meth-A tumor cells as described in Example 1.
Details of the protocols are in the footnotes of Table VI. PBS was used as a control. Results were evaluated 14 days after initiation of treatment. The headings are defined in the footnotes of Table I. TABLE VI

[6] = Smith et al., cited from earlier work
Meth-A tumor cells [7] = assay: TNF mutein and BSO in mice with Meth-A tumor (Example 3); assay type: in vivo, Female Balb/c mice; conditions: BSO 1.25 g/kg alone, i.p. twice daily for ten days
Protocol: Female Balb/c mice were implanted subcutaneously with Meth-A tumor cells as described in Example 1. Treatment was initiated seven days after the implantation.
A protocol was employed wherein BSO or the TNF mutein of Example 1 alone, or BSO together with the TNF mutein, were administered. BSO was administered intraperitonally and TNF intravenously. The BSO was started 24 hours prior to TNF administration twice daily (6-8 hours between doses) for ten days and TNF was given with the second BSO dose every third day for three times. BSO excipient was used as a volume control in the TNF alone groups. PBS was used as a control. The protocol is illustrated below: [formula]
Table III illustrates the results of this study, with the headings defined in the footnotes to Table II. The numbers in parentheses indicate the results from a repeat of the experiment.

[8] = Vit.C 7 mg/kg, TNF 125 µg/kg where given
[9] = Vit.C 35 mg/kg, TNF 125 µg/kg where given
[10] = Vit.C 70 mg/kg, TNF 125 µg/kg where given
[11] = aspirin 30 mg/kg alone, i.v., 14 days after treatment began

O=c1[nH]c(=O)c2[nH]c(=O)[nH]c2[nH]1 [Uric acid, uric acid]
Cures (Meth-A tumor cells [1]): 0/5
△TW (Meth-A tumor cells [1]; day 14): 42.3
Cures (△TW=0, or no visible tumor after 21 days from start of treatment) [2]: 0/14
△TW (ratio of mean tumor volume at 14 days to start of treatment) [2]: 51.7 ± 17.7

O=C1O[C@H]([C@@H](O)CO)C(O)=C1O [Vit.C, Ascorbic Acid]
% Control △BW (Meth-A tumor cells [3]; Vit.C 7 mg/kg, TNF 125 µg/kg immediately after where given): 92%
Cures (△TW=0, or no visible tumor after 21 days from start of treatment) (Meth-A tumor cells [3]; [8]): 0/5
Deaths (Meth-A tumor cells [3]; [8]): 0/5
% Control △TW (Meth-A tumor cells [3]; [8]): 76%
Cures (△TW=0, or no visible tumor after 21 days from start of treatment) (Meth-A tumor cells [3]; [9]): 0/5
Deaths (Meth-A tumor cells [3]; [9]): 0/5
% Control △BW (Meth-A tumor cells [3]; [9]): 100%
% Control △TW (Meth-A tumor cells [3]; [9]): 88%
Cures (△TW=0, or no visible tumor after 21 days from start of treatment) (Meth-A tumor cells [3]; [10]): 0/5
Deaths (Meth-A tumor cells [3]; [10]): 0/5
% Control △BW (Meth-A tumor cells [3]; [10]): 96%
% Control △TW (Meth-A tumor cells [3]; [10]): 74%
toxicity of vitamin C alone (Meth-A tumor cells [3]; at the three doses tested (7, 35, 70 mg/kg)): non-toxic

CC(=O)Oc1ccccc1C(=O)O [Aspirin]
Cures (Meth-A tumor cells [4]; aspirin 30 mg/kg alone, i.v.): 0/5
Deaths (Meth-A tumor cells [4]; aspirin 30 mg/kg alone, i.v.): 0/5
△BW (Meth-A tumor cells [4]; [11]): 1.34
△TW (Meth-A tumor cells [4]; [11]): 66.6
toxicity of aspirin alone (Meth-A tumor cells [4]; aspirin 30 mg/kg, single dose or once a day for five days): non-toxic
Cures (Meth-A tumor cells [5]): 0/5
Deaths (Meth-A tumor cells [5]; NDGA cell adds (1 tumor death d. 14), aspirin + NDGA cell adds (d. 5)): 0/5
△TW (Meth-A tumor cells [5]): 60.3

CCCCS(=N)(=O)CCC(N)C(=O)O (stereo not drawn) [BSO, Buthionine Sulphoximine]
toxicity ([6]; 400-800 mg/kg of BSO orally every eight hours, fifteen doses): toxic
toxicity ([6]; fifteen doses of 100 mg/kg/dose of BSO orally every eight hours, Proceedings of AACR, 28 (March 1987), p. 440): relatively non-toxic
Cures (no palpable tumor on day 14) (Meth-A tumor cells [7]): 0/10
Deaths (Meth-A tumor cells [7]): 0/10
△TW (Meth-A tumor cells [7]; mean values): 29.8
△BW (Meth-A tumor cells [7]; mean values of two experiments): 1.19

CC(Cc1ccc(O)c(O)c1)C(C)Cc1ccc(O)c(O)c1 (stereo not drawn) [NDGA, nordihydroguaiaretic acid (4,4'-[2,3-dimethyl-1,4-butanediyl]-bis[1,2-benzenediol])]
Cures (Meth-A tumor cells [5]): 0/5
△TW (Meth-A tumor cells [5]): 50.8
